{
  "source": "patent US11952368B2",
  "about": "“FAPI dimer compound, FAPI dimer-based positron emission tomography (PET) imaging agent for tumor diagnosis, and preparation method and use thereof” (XIAMEN UNIVERSITY, priority 2021, dated 2024)",
  "key": {"FAP on CAFs": {"molecular_target": "T1, FAP on CAFs (Homo sapiens, UniProt Q12884)", "T1 construct": "FAP-expressing CAFs were inoculated in a 24-well plate; endogenous in cells; host or cells: cancer-associated fibroblasts (CAFs)", "T1 sequence (Q12884 1-760)": "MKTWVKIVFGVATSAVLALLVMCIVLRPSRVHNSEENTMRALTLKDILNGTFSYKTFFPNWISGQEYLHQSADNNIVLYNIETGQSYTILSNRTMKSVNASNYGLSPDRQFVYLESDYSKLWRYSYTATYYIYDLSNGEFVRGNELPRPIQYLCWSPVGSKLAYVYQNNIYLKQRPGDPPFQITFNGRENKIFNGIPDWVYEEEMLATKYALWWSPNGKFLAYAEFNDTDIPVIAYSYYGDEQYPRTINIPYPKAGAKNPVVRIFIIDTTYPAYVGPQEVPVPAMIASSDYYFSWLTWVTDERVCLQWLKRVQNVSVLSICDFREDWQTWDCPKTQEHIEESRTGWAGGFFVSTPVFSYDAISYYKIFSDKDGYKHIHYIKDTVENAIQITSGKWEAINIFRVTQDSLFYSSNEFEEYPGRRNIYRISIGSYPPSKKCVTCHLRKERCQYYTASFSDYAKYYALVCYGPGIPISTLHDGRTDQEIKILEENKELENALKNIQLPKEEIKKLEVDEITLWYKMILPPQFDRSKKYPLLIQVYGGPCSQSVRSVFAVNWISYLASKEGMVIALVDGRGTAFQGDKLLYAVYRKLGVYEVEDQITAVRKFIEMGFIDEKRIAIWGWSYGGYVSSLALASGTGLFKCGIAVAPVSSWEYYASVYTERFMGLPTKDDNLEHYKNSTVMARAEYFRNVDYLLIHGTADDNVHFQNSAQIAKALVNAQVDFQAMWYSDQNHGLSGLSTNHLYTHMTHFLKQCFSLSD", "assay": "FAP binding assay (radioligand competition) on CAFs", "conditions": "radiolabeled compound co-incubated 60 min with corresponding unlabeled FAPI derivative", "experimental": "FAP-expressing CAFs were inoculated in a 24-well plate and cultivated with a 10% (volume fraction) FBS-containing 1640 medium for 48 h before the experiment until a cell density was about 80% to 90%; the medium was changed to an FBS-free 1640 medium; and the ^68Ga-2PEG(3)-FAPI-dimer, ^68Ga-FAPI-46, or ^68Ga-2PEG(3)-FAPI-dimer+11.3 nmol FAPI-46 (for the blocking experiment) was added to the 24-well plate and incubated, with predetermined intervals of 10 min, 30 min, 60 min, 90 min, and 120 min. The FAP binding assay was conducted after a radiolabeled compound and a corresponding unlabeled FAPI derivative (1.27×10^−4-10^−13 mol/L of 2PEG(3)-FAPI-dimer was added to ^68Ga-2PEG(3)-FAPI-dimer; and 2.83×10^−4-1×10^−13 mol/L of FAPI-46 was added to ^68Ga-FAPI-46) were co-incubated for 60 min. A half-inhibitory concentration (IC50s) was calculated by using GraphPad Prism to fit data through nonlinear regression. In each step of the experiment, cells were washed twice with 1 mL of PBS. Finally, CAFs were lysed with 0.5 mL of a 1 mol/L NaOH aqueous solution to conduct radioactive counting with a gamma counter. 3 parallel replicates were set for each experiment."}, "[1]": {"assay": "Stability test: incubation in PBS or FBS, radiochemical purity by HPLC", "format": "in vitro ADME", "conditions": "37° C., 1 h, 2 h, and 4 h", "experimental": "(§1) 20 μL of a solution of the ^68Ga-2PEG(3)-FAPI-dimer (3.7 MBq activity/20 μL) prepared in Example 1 (with normal saline (NS) as a solvent) was taken and added to a centrifuge tube with 100 μL of FBS, and incubated at 37° C. for 1 h, 2 h, and 4 h to obtain an FBS co-incubation solution; 20 μL of the FBS co-incubation solution was taken, 40 μL of acetonitrile was added for protein precipitation, and a resulting mixture was filtered through a 0.22 μm needle filter membrane; and a radiochemical purity was analyzed through HPLC.\nas §1, with “NS” for “normal saline (NS)”, “PBS (pH=7.4),” for “FBS,”, “a PBS” for “an FBS”, “PBS” for “FBS”, “taken” for “taken, 40 μL of acetonitrile was added for protein precipitation,”, “and” for “and a resulting mixture was”"}, "FAP-expressing CAFs": {"system": "FAP-expressing CAFs", "assay": "Cellular uptake and cellular uptake blockade in CAFs", "format": "cell-based, human", "experimental": "A human HCC cell line Huh7 was purchased from the National Experimental Cell Resource Sharing Platform, China. CAFs were extracted from a surgical specimen of an HCC patient.\nAfter the CAFs were verified as cells with high FAP expression, the next experiment was conducted. […]\nFAP-expressing CAFs were inoculated in a 24-well plate and cultivated with a 10% (volume fraction) FBS-containing 1640 medium for 48 h before the experiment until a cell density was about 80% to 90%; the medium was changed to an FBS-free 1640 medium; and the ^68Ga-2PEG(3)-FAPI-dimer, ^68Ga-FAPI-46, or ^68Ga-2PEG(3)-FAPI-dimer+11.3 nmol FAPI-46 (for the blocking experiment) was added to the 24-well plate and incubated, with predetermined intervals of 10 min, 30 min, 60 min, 90 min, and 120 min. […] A half-inhibitory concentration (IC50s) was calculated by using GraphPad Prism to fit data through nonlinear regression. […]"}},
  "data": [
    {"smiles": "CN(CCCN1CCN(C(=O)COCCOCCOCCNC(=O)CCC(=O)N[C@@H](CCCCNC(=O)CN2CCN(CC(=O)[O-])CCN(CC(=O)[O-])CCN(CC(=O)[O-])CC2)C(=O)NCCOCCOCCOCC(=O)N2CCN(CCCN(C)c3ccc4nccc(C(=O)NCC(=O)N5CC(F)(F)C[C@H]5C#N)c4c3)CC2)CC1)c1ccc2nccc(C(=O)NCC(=O)N3CC(F)(F)C[C@H]3C#N)c2c1.[68Ga+3]", "note": "[^68Ga-2PEG(3)-FAPI-dimer]", "values": [
      {"measurement": "IC50", "setting": "FAP on CAFs", "value": 3.57, "unit": "nM"},
      {"measurement": "radiochemical purity after incubation in FBS", "setting": "[1]; FBS", "value": "greater than 90%"},
      {"measurement": "radiochemical purity after incubation in PBS", "setting": "[1]; PBS (pH=7.4)", "value": "greater than 90%"},
      {"measurement": "cell uptake blockade: binding to FAP blocked by FAPI-46 precursor", "setting": "FAP-expressing CAFs; +11.3 nmol FAPI-46", "value": "can significantly block"},
      {"measurement": "absorption value relative to ^68Ga-FAPI-46 monomer in CAFs", "setting": "FAP-expressing CAFs; incubation 10 min to 120 min", "value": "about twice"}
    ]}
  ]
}
